The values below are quoted from earlier work in US8754219B2, “Compounds that modulate intracellular calcium” (Calcimedica, Inc., priority 2010, dated 2014).

Data set [1] has as its target STIM1 and Orai1 in HEK293 cells (Homo sapiens, UniProt Q96D31). The following applies: Orai1 expressed along with STIM1.
Data set [2] concerns Jurkat cells.
For data set [3], the system named is Jurkat cells. This is another data set of the same source.
In data set [4] the test system is colon cancer cells.
In data set [5] the test system is colon cancer cells. The source holds these as a separate data set.

Chain of STIM1 and Orai1 in HEK293 cells (Q96D31 whole entry): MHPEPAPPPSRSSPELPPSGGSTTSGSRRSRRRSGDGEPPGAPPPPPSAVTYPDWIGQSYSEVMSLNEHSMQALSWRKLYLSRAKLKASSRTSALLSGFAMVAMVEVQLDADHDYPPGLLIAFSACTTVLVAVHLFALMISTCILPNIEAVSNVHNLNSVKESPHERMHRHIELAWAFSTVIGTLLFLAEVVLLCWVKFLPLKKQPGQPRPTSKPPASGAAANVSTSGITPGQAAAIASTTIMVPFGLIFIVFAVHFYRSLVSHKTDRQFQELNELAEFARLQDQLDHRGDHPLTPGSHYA

In the case of `NCCOB(c1ccccc1)c1ccccc1` [2-aminoethoxydiphenylborate], the “block of store dependent Ca2+ entry” value in data set [1] was “completely blocked”.
With `Cc1nnsc1C(=O)Nc1ccc(-n2nc(C(F)(F)F)cc2C(F)(F)F)cc1` [BTP-2], the inhibition of proliferation result in the data set with Jurkat cells [2] and in the data set with colon cancer cells [5] was “inhibits” in each case. Moreover, the “inhibition of SOCE” value with Jurkat cells [3] and in the data set with colon cancer cells [4] was “inhibits” in each case.
